According to patent US20240043404A1 (AbbVie Inc., priority 2009, published 2024):

test system: RS4;11 cells; experiment: RS4;11 cell viability assay (CellTiter Glo); format: cell-based, human; conditions: Homo sapiens, RS4-11, 48 h, 50,000 cells per well, 10% human serum, 48 hours; read-out: RS4; 11 EC50 Values;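 note: acute lymphoblastic leukemia line RS4,11, EC50 derived from percentage of viable cells after treatment relative to untreated controls, cell killing taken as a measure of Bcl-2 inhibition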
Protocol: The acute lymphoblastic leukemia (ALL) cell line RS4;11 was used as the primary human cell line to assess the cellular activity of Bcl-2 selective agents in vitro and their efficacy in vivo.
Cell cytotoxicity EC50 values were assessed using CellTiter Glo (Promega) according to the manufacturer's recommendations. The EC50 values were determined as a percentage of viable cells following treatment compared to the untreated control cells.

SMILES | EC50
CN(C)CC(=O)N1CCC(F)(COc2ncc(S(=O)(=O)NC(=O)c3ccc(N4CCN(CC5=C(c6ccc(Cl)cc6)CC(C)(C)CC5)CC4)cc3Oc3cnc4[nH]ccc4c3)cc2Cl)CC1 [Example 270, N-[(5-chloro-6-{[1-(N,N-dimethylglycyl)-4-fluoropiperidin-4-yl]methoxy}pyridin-3-yl)sulfonyl]-4-(4-{[2-(4-chlorophenyl)-4,4-dimethylcyclohex-1-en-1-yl]methyl}piperazin-1-yl)-2-(1H-pyrrolo[2,3-b]pyridin-5-yloxy)benzamide] | 0.00252 µM
O=C(NS(=O)(=O)c1ccc(NCC2CCOCC2)c([N+](=O)[O-])c1)c1ccc(N2CCC(F)(Cc3ccccc3-c3ccc(Cl)cc3)CC2)cc1Oc1cnc2[nH]ccc2c1 [Example 271, 4-{4-[(4′-chlorobiphenyl-2-yl)methyl]-4-fluoropiperidin-1-yl}-N-({3-nitro-4-[(tetrahydro-2H-pyran-4-ylmethyl)amino]phenyl}sulfonyl)-2-(1H-pyrrolo[2,3-b]pyridin-5-yloxy)benzamide] | 0.437 µM
O=C(NS(=O)(=O)c1cnc(OCC2(F)CCOCC2)c(Cl)c1)c1ccc(N2CCC(F)(Cc3ccccc3-c3ccc(Cl)cc3)CC2)cc1Oc1cnc2[nH]ccc2c1 [Example 272, 4-{4-[(4′-chlorobiphenyl-2-yl)methyl]-4-fluoropiperidin-1-yl}-N-({5-chloro-6-[(4-fluorotetrahydro-2H-pyran-4-yl)methoxy]pyridin-3-yl}sulfonyl)-2-(1H-pyrrolo[2,3-b]pyridin-5-yloxy)benzamide] | 0.84 µM
CC(C)N1CCC2(CCC(c3ccc(Cl)cc3)=C(CN3CCN(c4ccc(C(=O)NS(=O)(=O)c5ccc(NCC6CCOCC6)c(C(F)(F)F)c5)c(Oc5cnc6[nH]ccc6c5)c4)CC3)C2)CC1 [Example 273, 4-(4-{[9-(4-chlorophenyl)-3-isopropyl-3-azaspiro[5.5]undec-8-en-8-yl]methyl}piperazin-1-yl)-2-(1H-pyrrolo[2,3-b]pyridin-5-yloxy)-N-({4-[(tetrahydro-2H-pyran-4-ylmethyl)amino]-3-(trifluoromethyl)phenyl}sulfonyl)benzamide] | 0.209 µM
CC1(C)CCC(CN2CCN(c3ccc(C(=O)NS(=O)(=O)c4cnc(O[C@@H]5CCN(C(CF)CF)C5)c(Cl)c4)c(Oc4cnc5[nH]ccc5c4)c3)CC2)=C(c2ccc(Cl)cc2)C1 [Example 274, N-[(5-chloro-6-{[(3R)-1-(1,3-difluoropropan-2-yl)pyrrolidin-3-yl]oxy}pyridin-3-yl)sulfonyl]-4-(4-{[2-(4-chlorophenyl)-4,4-dimethylcyclohex-1-en-1-yl]methyl}piperazin-1-yl)-2-(1H-pyrrolo[2,3-b]pyridin-5-yloxy)benzamide] | 0.214 µM
CC1(C)CCC(CN2CCN(c3ccc(C(=O)NS(=O)(=O)c4ccc(OCCOC5CCOC5)c([N+](=O)[O-])c4)c(Oc4cnc5[nH]ccc5c4)c3)CC2)=C(c2ccc(Cl)cc2)C1 (centres unmarked) [Example 275, 4-(4-{[2-(4-chlorophenyl)-4,4-dimethylcyclohex-1-en-1-yl]methyl}piperazin-1-yl)-N-({3-nitro-4-[2-(tetrahydrofuran-3-yloxy)ethoxy]phenyl}sulfonyl)-2-(1H-pyrrolo[2,3-b]pyridin-5-yloxy)benzamide] | 0.143 µM
CC1(C)CCC(CN2CCN(c3ccc(C(=O)NS(=O)(=O)c4ccc(NC[C@H]5CC[C@H](C#N)CC5)c([N+](=O)[O-])c4)c(Oc4cnc5[nH]ccc5c4)c3)CC2)=C(c2ccc(Cl)cc2)C1 [Example 276, 4-(4-{[2-(4-chlorophenyl)-4,4-dimethylcyclohex-1-en-1-yl]methyl}piperazin-1-yl)-N-[(4-{[(trans-4-cyanocyclohexyl)methyl]amino}-3-nitrophenyl)sulfonyl]-2-(1H-pyrrolo[2,3-b]pyridin-5-yloxy)benzamide] | 0.0035 µM
CC1(C)CCC(CN2CCN(c3ccc(C(=O)NS(=O)(=O)c4cnc(OCC5(F)CCN(C6COC6)CC5)c(Cl)c4)c(Oc4cnc5[nH]ccc5c4)c3)CC2)=C(c2ccc(Cl)cc2)C1 [Example 277, N-[(5-chloro-6-{[4-fluoro-1-(oxetan-3-yl)piperidin-4-yl]methoxy}pyridin-3-yl)sulfonyl]-4-(4-{[2-(4-chlorophenyl)-4,4-dimethylcyclohex-1-en-1-yl]methyl}piperazin-1-yl)-2-(1H-pyrrolo[2,3-b]pyridin-5-yloxy)benzamide] | 0.00818 µM
CC1(C)CCC(CN2CCN(c3ccc(C(=O)NS(=O)(=O)c4cnc(OCCC5CCOCC5)c(C#N)c4)c(Oc4cnc5[nH]ccc5c4)c3)CC2)=C(c2ccc(Cl)cc2)C1 [Example 278, 4-(4-{[2-(4-chlorophenyl)-4,4-dimethylcyclohex-1-en-1-yl]methyl}piperazin-1-yl)-N-({5-cyano-6-[2-(tetrahydro-2H-pyran-4-yl)ethoxy]pyridin-3-yl}sulfonyl)-2-(1H-pyrrolo[2,3-b]pyridin-5-yloxy)benzamide] | 0.794 µM
CC1(C)CCC(CN2CCN(c3ccc(C(=O)NS(=O)(=O)c4ccc(OCc5ccoc5)c([N+](=O)[O-])c4)c(Oc4cnc5[nH]ccc5c4)c3)CC2)=C(c2ccc(Cl)cc2)C1 [Example 279, 4-(4-{[2-(4-chlorophenyl)-4,4-dimethylcyclohex-1-en-1-yl]methyl}piperazin-1-yl)-N-{[4-(3-furylmethoxy)-3-nitrophenyl]sulfonyl}-2-(1H-pyrrolo[2,3-b]pyridin-5-yloxy)benzamide] | 0.225 µM
CC1(C)CCC(CN2CCN(c3ccc(C(=O)NS(=O)(=O)c4cnc(OC[C@@H]5CCN(C(CF)CF)C5)c(Cl)c4)c(Oc4cnc5[nH]ccc5c4)c3)CC2)=C(c2ccc(Cl)cc2)C1 [Example 280, N-[(5-chloro-6-{[(3R)-1-(1,3-difluoropropan-2-yl)pyrrolidin-3-yl]methoxy}pyridin-3-yl)sulfonyl]-4-(4-{[2-(4-chlorophenyl)-4,4-dimethylcyclohex-1-en-1-yl]methyl}piperazin-1-yl)-2-(1H-pyrrolo[2,3-b]pyridin-5-yloxy)benzamide] | 0.459 µM
CC1(C)CCC(CN2CCN(c3ccc(C(=O)NS(=O)(=O)c4cnc(OC[C@@H]5CCN(CC(F)F)C5)c(Cl)c4)c(Oc4cnc5[nH]ccc5c4)c3)CC2)=C(c2ccc(Cl)cc2)C1 [Example 281, N-[(5-chloro-6-{[(3R)-1-(2,2-difluoroethyl)pyrrolidin-3-yl]methoxy}pyridin-3-yl)sulfonyl]-4-(4-{[2-(4-chlorophenyl)-4,4-dimethylcyclohex-1-en-1-yl]methyl}piperazin-1-yl)-2-(1H-pyrrolo[2,3-b]pyridin-5-yloxy)benzamide] | 0.654 µM
CC1(C)CCC(CN2CCN(c3ccc(C(=O)NS(=O)(=O)c4cnc(OCC5(F)CCN(C(CF)CF)CC5)c(Cl)c4)c(Oc4cnc5[nH]ccc5c4)c3)CC2)=C(c2ccc(Cl)cc2)C1 [Example 282, N-[(5-chloro-6-{[1-(1,3-difluoropropan-2-yl)-4-fluoropiperidin-4-yl]methoxy}pyridin-3-yl)sulfonyl]-4-(4-{[2-(4-chlorophenyl)-4,4-dimethylcyclohex-1-en-1-yl]methyl}piperazin-1-yl)-2-(1H-pyrrolo[2,3-b]pyridin-5-yloxy)benzamide] | 0.0322 µM
CN1CCC(F)(COc2ccc(S(=O)(=O)NC(=O)c3ccc(N4CCN(CC5=C(c6ccc(Cl)cc6)CC(C)(C)CC5)CC4)cc3Oc3cnc4[nH]ccc4c3)cc2Cl)CC1 [Example 283, N-({3-chloro-4-[(4-fluoro-1-methylpiperidin-4-yl)methoxy]phenyl}sulfonyl)-4-(4-{[2-(4-chlorophenyl)-4,4-dimethylcyclohex-1-en-1-yl]methyl}piperazin-1-yl)-2-(1H-pyrrolo[2,3-b]pyridin-5-yloxy)benzamide] | 0.0131 µM
